Measurements as given in US5486469A, “Thermostable Fervidobacterium pullulanases” (Novo Nordisk A/S, priority 1991, dated 1996).
Read-outs that look alike come from different tables or passages of the source.

Biological target: T1, Fervidobacterium sp. Ven 5, DSM 6204 pullulanase, purified native enzyme (Fervidobacterium pennivorans, UniProt Q9XDB5)
T1 construct: Ven 5; single SDS-PAGE band of 78 kDa; not the E. coli clone PL2125
T1 sequence (Q9XDB5 29-849): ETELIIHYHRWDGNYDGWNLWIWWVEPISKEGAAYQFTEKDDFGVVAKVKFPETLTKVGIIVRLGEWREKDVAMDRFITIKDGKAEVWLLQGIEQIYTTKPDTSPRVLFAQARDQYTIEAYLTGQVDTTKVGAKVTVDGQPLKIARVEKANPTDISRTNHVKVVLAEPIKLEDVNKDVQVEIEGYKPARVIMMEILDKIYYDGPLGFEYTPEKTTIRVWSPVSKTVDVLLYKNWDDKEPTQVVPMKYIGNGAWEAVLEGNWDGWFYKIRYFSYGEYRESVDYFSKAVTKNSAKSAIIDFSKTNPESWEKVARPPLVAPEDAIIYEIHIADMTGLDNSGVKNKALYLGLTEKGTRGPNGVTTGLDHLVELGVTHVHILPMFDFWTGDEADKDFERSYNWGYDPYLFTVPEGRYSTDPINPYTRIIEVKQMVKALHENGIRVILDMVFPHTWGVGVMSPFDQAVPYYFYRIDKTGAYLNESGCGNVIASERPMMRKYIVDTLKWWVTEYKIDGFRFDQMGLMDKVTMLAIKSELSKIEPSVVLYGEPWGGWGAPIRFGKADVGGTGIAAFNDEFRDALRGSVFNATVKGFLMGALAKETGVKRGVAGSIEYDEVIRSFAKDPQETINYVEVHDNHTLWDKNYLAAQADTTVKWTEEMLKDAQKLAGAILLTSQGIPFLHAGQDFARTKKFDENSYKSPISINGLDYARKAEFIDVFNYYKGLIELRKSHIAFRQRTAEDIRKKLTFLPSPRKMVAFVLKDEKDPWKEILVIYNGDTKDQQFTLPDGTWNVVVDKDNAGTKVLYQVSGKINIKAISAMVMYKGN
Assay: Influence of cyclodextrins and EDTA on pullulytic activity (reducing sugars liberated from pullulan)
Format: biochemical
Conditions: for Influence on the pullulytic activity (in words): up to 5 mM
Procedure: Pullulanase activity was measured by determining the amount of reducing sugars liberated during incubation with pullulan at 85° C. and pH 6.0. The activity of 1 U of pullulanase was defined as that amount of enzyme which liberates 1 μmol of reducing sugar per minute using maltose as a standard. The enzymatic reactions were conducted in 50 mM sodium-phosphate buffer, pH 6.0, the concentration of the substrate was 0.5% (w/v).
The reaction mixture was prepared by adding 50 μl enzyme solution to 200 μl substrate solution. The mixture was incubated at 85° C. for 5 minutes, cooled and diluted with 2.5 ml water. After incubation 250 μl dinitrosalicylic acid reagent (i.e. dinitrosalicylic acid 1 g, 2 N NaOh 20 ml, K-Na-tartrate×4 H2 O 30 g, and distilled water 100 ml) were added. The optical density was measured at 546 nm against a mixture which was not incubated.
6) Influence of metal ions,
The concentration of inhibitors was:
Metal ions and cyclodextrins
The purified pullulanase obtained according to Ex. 2 was subjected to characterization using the method for analyzing pullulanase activity described in Ex. 1.
To investigate the influence of metal ions, cyclodextrins and various glucose polymers on the activity of the pullulanase the purified enzyme was incubated with a 0.5% pullulan solution (pH 6.0) in the presence of up to 5 mM of metal ions and cyclodextrins. Amylose, starch, glycogen, pullulan and branched oligosaccharides were added in concentrations of up to 0.05%.

[1] = pH 6, read-out: Activity (%) of pullulanase in the presence of inhibitor

SMILES | inhibition at 5000 µM [1] | Influence on the pullulytic activity (in words) (0.5% pullulan solution, pH 6.0) | inhibition at 5000 µM (5 mM inhibitor, 0.5% pullulan solution, pH 6.0, 1.0 U/ml pullulanase, no inhibitor = 100, read-out: Activity (%) of pullulanase in the presence of inhibitor)
O=C(O)CN(CCN(CC(=O)O)CC(=O)O)CC(=O)O [EDTA] | 100% | did not influence the pullulytic activity | –
OCC1OC2OC3C(CO)OC(OC4C(CO)OC(OC5C(CO)OC(OC6C(CO)OC(OC7C(CO)OC(OC1C(O)C2O)C(O)C7O)C(O)C6O)C(O)C5O)C(O)C4O)C(O)C3O (stereo not drawn) [α-Cyclodextrin] | 57% | decreased the activity of the enzyme slightly | –
OCC1OC2OC3C(CO)OC(OC4C(CO)OC(OC5C(CO)OC(OC6C(CO)OC(OC7C(CO)OC(OC8C(CO)OC(OC1C(O)C2O)C(O)C8O)C(O)C7O)C(O)C6O)C(O)C5O)C(O)C4O)C(O)C3O (stereo not drawn) [β-Cyclodextrin] | – | inhibited completely | 4%
